# No end group written: not given here.
# Tested on: isolated rat aortic rings
# Test: Vascular smooth muscle relaxation, isolated rat aortic rings pre-contracted with phenylephrine
# Excerpt: The ability of h-SCP (SEQ ID NO:1) to relax vascular smooth muscle was examined in isolated, rat aortic rings pre-contracted with phenylephrine (PE) (see FIG. 6). […] The responses caused by h-SCP (SEQ ID NO:1) were inhibited by anti-sauvagine-30 (SEQ ID NO:118).
substance,measurement,setting,value
"TKFTLSLDVPTNIMNLLFNIAKAKNLRAQAAANAHLMAQI-NH2 [SEQ ID NO: 1, TKFTLSLDVPTNIMNLLFNIAKAKNLRAQAAANAHLMAQI-NH2, reference compound]",pA50 relaxation,rat aortic rings pre-contracted with phenylephrine,6.05±0.12
same,fold less potent than h-UCN2,relaxation of rat aortic rings,10 fold
